Values quoted from earlier work as cited in patent publication US20110165150A1, “Isolated organ perfusion combination therapy of cancer” (Merck Patent GmbH, priority 2006, published 2011).

Test system: integrin receptors αvβ3, αvβ1, αvβ6, αvβ8, αIIbβ3
Conditions: especially αvβ3 and/or αvβ5

CC(C)[C@H]1C(=O)N[C@@H](CCCN=C(N)N)C(=O)NCC(=O)N[C@@H](CC(=O)O)C(=O)N[C@H](Cc2ccccc2)C(=O)N1C [Cilengitide, cyclo-(Arg-Gly-Asp-DPhe-NMeVal)]
blocking the integrin receptors: efficacious in blocking
